Laboratory results: publication PMC12907944, “Targeting RAD51-BRCA2 Interaction to Enhance Synthetic Lethality with Olaparib in Pancreatic Cancer: Development of a Novel Phenyl Furan-Quinoline-Carboxylic Acid Series” (ACS Medicinal Chemistry Letters, 2026)
In brackets after ≈: the same amount, converted by molar mass.

What was measured:
[1] = test system: homologous recombination in BxPC-3 cells; experiment: HR Quick Assay (HR-QA); type: cell-based; conditions: Homo sapiens
[2] = test system: RAD51 foci formation in BxPC-3 cells; experiment: RAD51 foci immunofluorescence after cisplatin; type: cell-based, human
BxPC-3 cells = experiment: cell viability (CellTiter-Glo), combination with olaparib, Interaction Index; type: cell-based, human; conditions: for Combination studies with olaparib: combination effect: BxPC-3 cells
kinetic solubility = type: physicochemical; conditions: PBS, aqueous buffer, kinetic from dmso stock
γ-H2AX in BxPC-3 cells = experiment: γ-H2AX immunofluorescence; type: cell-based, human; conditions: BxPC-3, 72 h, 19 + ola combination
[3] = test system: homologous recombination in HEK-293 cells; experiment: m-Clover Lamin A assay (mCl-HR); type: cell-based, human
[4] = test system: normal pancreatic epithelial H-6037 cells; experiment: cell viability, combination with olaparib; type: cell-based, human; conditions: 19/ola combination, 6-day
BxPC-3 3D spheroids = experiment: 3D spheroids cell viability (MTT) and volume; type: cell-based, human; conditions: BxPC-3 spheroids, 60 μM compound alone

With `O=C(O)c1cc(-c2ccc(-c3ccccc3)o2)nc2ccc(O)cc12` [Compound 18] the inhibition at 20 µM ([1]; BXPC-3, maximum inhibition) was no more than 60%.
`N.N.[Cl][Pt][Cl]` [CPL, cisplatin, reference compound] gave an RAD51-labelled nuclei ([2]; BxPC-3, CPL alone (50 μM cisplatin)) of 56%.
In the case of `CCc1ccc2nc(-c3ccc(-c4ccccc4)o3)cc(C(=O)O)c2c1` [Compound 16], the inhibition at 80 µM ([1]; BXPC-3, maximum inhibition) is reported as 76%, the cell viability reduction (BxPC-3 cells; BxPC-3, compound alone at 40 µM) is reported as 40% and the “Combination studies with olaparib: combination effect” value (“Combination studies with olaparib” below) (BxPC-3 cells; 144 h) is reported as “additive (a result ranging from 0.8 to 1.2 denotes an additive effect)”.
With `Cc1ccc2nc(-c3ccc(-c4ccccc4C(=O)O)o3)cc(C(=O)O)c2c1` [Compound 1] the inhibition at 100 µM ([1]; BXPC-3, at 100 μM) was 4%, the inhibition at 50 µM ([1]; BXPC-3, maximum inhibition, at 50 μM) was 35% and the solubility kinetic (kinetic solubility) was 234 ± 9 µM (≈ 87.4 µg/mL). For the same compound, the “Combination studies with olaparib” value (BxPC-3 cells; 144 h) was “additive (a result ranging from 0.8 to 1.2 denotes an additive effect)”.
In the case of `Cc1ccc2nc(-c3ccc(-c4ccccc4)s3)cc(C(=O)O)c2c1` [Compound 20], the inhibition at 20 µM ([1]; BXPC-3, maximum inhibition) is reported as 89%, the cell viability reduction (BxPC-3 cells; BxPC-3, 5 µM compound in combination with olaparib, 144 h) is reported as “≈ 40%” and the “Combination studies with olaparib” value (BxPC-3 cells; 144 h) is reported as “additive (a result ranging from 0.8 to 1.2 denotes an additive effect)”.
In the case of `Cc1ccc2nc(-c3ccc(-c4ccccc4F)o3)cc(C(=O)O)c2c1` [Compound 8], the inhibition at 60 µM ([1]; BXPC-3, maximum inhibition, at 60 μM) is reported as 39%.
Compound `COc1ccc2nc(-c3ccc(-c4ccccc4)o3)cc(C(=O)O)c2c1` [Compound 19] has an inhibition at 80 µM ([1]; BXPC-3, maximum inhibition) of 81%, an IC50 ([1]; multiple-dose HR-QA) of 21.7 ± 1.81 µM and a γ-H2AX-labelled nuclei (γ-H2AX in BxPC-3 cells) greater than 40%. The solubility kinetic (kinetic solubility) was greater than 250 µM, the mClover-positive cells ([3]; HEK-293, 40 μM) was roughly 4% and the inhibition at 40 µM ([3]; Homo sapiens, HEK293, HEK-293, 40 μM) was roughly 74%. For the same compound, the RAD51-labelled nuclei ([2]; BxPC-3, 19 and CPL (50 μM cisplatin)) was 22%, the “effect on cell viability of normal cells” value [4] was “no significant effect” and the “impact on spheroid volume” value (BxPC-3 3D spheroids) was “no significant impact”. The “Combination w/ola in BxPC-3 cells” value (BxPC-3 cells; BxPC-3, Table S2) was “Synergism”.
With `Cc1ccc2nc(-c3ccc(-c4ccccc4)o3)cc(C(=O)O)c2c1` [Compound 4] the inhibition at 80 µM ([1]; BXPC-3, maximum inhibition) was 63% and the “Combination studies with olaparib” value (BxPC-3 cells; 144 h) was “additive (a result ranging from 0.8 to 1.2 denotes an additive effect)”.
With `Nc1ccc2nc(-c3ccc(-c4ccccc4)o3)cc(C(=O)O)c2c1` [Compound 17] the inhibition at 20 µM ([1]; BXPC-3, maximum inhibition) was 77% and the “Combination studies with olaparib” value (BxPC-3 cells; 144 h) was “additive (a result ranging from 0.8 to 1.2 denotes an additive effect)”.
